In BindingDB's records for doi:10.7270/Q2N014XN (Srmlsc, 2007):
pIC50: −log10 of the molar value. Where a name gives a salt, the structure may show the parent alone.

Target: T1, Diphosphomevalonate decarboxylase (Streptococcus pneumoniae serotype 2 (strain D39 / NCTC 7466), UniProt A0A0H2ZN59)
T1 sequence (A0A0H2ZN59 whole entry): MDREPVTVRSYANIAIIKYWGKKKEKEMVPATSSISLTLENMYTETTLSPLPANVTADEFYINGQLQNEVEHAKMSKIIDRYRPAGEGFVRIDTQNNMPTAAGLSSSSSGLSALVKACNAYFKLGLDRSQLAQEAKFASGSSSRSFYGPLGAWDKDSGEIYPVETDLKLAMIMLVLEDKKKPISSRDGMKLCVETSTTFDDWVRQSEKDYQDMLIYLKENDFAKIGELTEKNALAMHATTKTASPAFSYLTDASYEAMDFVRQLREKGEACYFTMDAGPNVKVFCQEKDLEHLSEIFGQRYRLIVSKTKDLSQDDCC
Test: S. pneumoniae DPM-DC inhibitor potency, dose response, biochemical, PK/LDH-coupled NADH fluorescence, hexokinase coupling counter-screen (AID 550)

Compound	pIC50	pIC50 (inactive by the depositor's call)
CCOC(=O)CSc1cc(=O)n(C)c2cc(Cl)ccc12 [2-[(7-chloro-1-methyl-2-oxo-4-quinolinyl)thio]acetic acid ethyl ester]	< 2.00	–
O=C(c1ccc(F)cc1)N1CCC(N2CCCCCC2)CC1 [MLS000037563]	< 2.00	–
CCCCNC(=O)c1ccc2nc(-c3ccco3)c(-c3ccco3)nc2c1 [MLS000119995]	–	4.12
O=C1NC(=O)C(CC(=O)N(c2ccccc2)C2(C(=O)NC3CCCC3)CCCCC2)N1 (configuration not stated) [1-[2-[2,5-bis(oxidanylidene)imidazolidin-4-yl]ethanoyl-phenyl-amino]-N-cyclopentyl-cyclohexane-1-carboxamide]	< 2.00	–
COC(=O)c1cc(OC)c(OC)cc1NC(=O)c1oc2ccccc2c1C [4,5-dimethoxy-2-[(3-methylbenzofuran-2-carbonyl)amino]benzoic acid methyl ester]	< 2.00	–
Cc1ccc(C)c(-c2nc3cc(N)ccc3o2)c1 [2-(2,5-Dimethyl-phenyl)-benzooxazol-5-ylamine]	5.22	–
Cc1cccc(OCC(O)Cn2c(-n3nc(C)cc3C)nc3c2c(=O)[nH]c(=O)n3C)c1 (configuration not stated) [8-(3,5-dimethylpyrazol-1-yl)-7-[2-hydroxy-3-(3-methylphenoxy)propyl]-3-methylpurine-2,6-dione]	< 2.00	–
CN(C)[C@@H]1C(=O)C(C(N)=O)C(=O)[C@@]2(O)C(=O)C3C(=O)c4c(O)cccc4[C@@](C)(O)[C@H]3[C@H](O)[C@@H]12 (stereo partly drawn) [(2E,4S,4aR,5S,5aR,6S,12aS)-2-[azanyl(oxidanyl)methylidene]-4-(dimethylamino)-6-methyl-5,6,10,11,12a-pentakis(oxidanyl)-4,4a,5,5a-tetrahydrotetracene-1,3,12-trione]	4.43	–
COC(=O)c1ccc(Nc2cc(C)nc(-c3ccccc3O)n2)cc1 [4-[[(2E)-2-(6-ketocyclohexa-2,4-dien-1-ylidene)-6-methyl-1H-pyrimidin-4-yl]amino]benzoic acid methyl ester]	4.73	–
O=NC1=C(Cc2ccco2)CCC1 [(2E)-2-(2-furanylmethylidene)-1-cyclopentanone oxime]	< 2.00	–
CCOC(=O)c1c(C)[nH]c(C(=O)COC(=O)c2ccccc2NC(=O)c2ccco2)c1C	4.20	–
COc1ccc(-c2ccc(-c3nnc(-c4ccncc4)o3)cc2)cc1 [2-[4-(4-methoxyphenyl)phenyl]-5-(4-pyridyl)-1,3,4-oxadiazole]	3.91	–
CCOC(=O)c1[nH]c2ccc(OC)cc2c1NC(=O)CN1CCN(c2ccccn2)CC1 [5-methoxy-3-[[1-oxo-2-[4-(2-pyridinyl)-1-piperazinyl]ethyl]amino]-1H-indole-2-carboxylic acid ethyl ester]	< 2.00	–
Cn1/c(=N/C(=O)c2ccco2)sc2cccc(F)c21 [MLS000101506]	< 2.00	–
CCOC(=O)N1CCC(NC(=O)CSc2cc(=O)n(C)c3ccccc23)CC1 [4-[[2-[(1-methyl-2-oxo-4-quinolinyl)thio]-1-oxoethyl]amino]-1-piperidinecarboxylic acid ethyl ester]	3.40	–
Cc1cc(C)c2c(n1)nn1c(N3CCN(c4ccccc4)CC3)cc(C)nc21 [2,8,10-trimethyl-4-(4-phenyl-1-piperazinyl)pyrido[2,3]pyrazolo[2,4-a]pyrimidine]	4.89	–
COc1ccc(-c2nc(C(N)=O)c3[nH]c(=O)n(-c4cccc(C)c4)c3n2)c(OC)c1 [SMR000016861]	3.89	–
C=C(C)Cn1c(COc2ccccc2)nnc1SCC(=O)O [2-[[4-(2-methylallyl)-5-(phenoxymethyl)-1,2,4-triazol-3-yl]thio]acetic acid]	< 2.00	–
Cc1ccc2cc3c(NC(=O)c4ccco4)nn(C)c3nc2c1 [MLS000041273]	4.34	–
CCOC(=O)c1cc2c(cn1)[nH]c1ccccc12	4.31	–
Nc1cc(N)cc(-c2nc3ccccc3[nH]2)c1 [SMR000008815]	4.10	–
Cn1c(N2CCOCC2)nc(-c2ccccc2)c1-c1ccccc1 [4-(1-methyl-4,5-diphenyl-2-imidazolyl)morpholine]	4.39	–
O=C(c1ccccc1F)N(Cc1ccccc1)C1CCS(=O)(=O)C1 (configuration not stated) [MLS000039394]	< 2.00	–
COc1ccc(-n2c(NC(=O)c3ccco3)c(C#N)c3nc4ccccc4nc32)cc1 [MLS000079925]	4.77	–
Cc1oc2cc(O)ccc2c(=O)c1N1C(=O)c2ccccc2C1=O [2-(2-methyl-7-oxidanyl-4-oxidanylidene-chromen-3-yl)isoindole-1,3-dione]	4.30	–
COCCN(Cc1cc2cc3c(cc2[nH]c1=O)OCO3)C(=O)c1cccs1 [N-(2-methoxyethyl)-N-[(6-oxidanylidene-5H-[1,3]dioxolo[4,5-g]quinolin-7-yl)methyl]thiophene-2-carboxamide]	4.42	–

Compound	pIC50	pIC50 (inactive by the depositor's call)
Cc1ccc2nc(-c3ccc(SCC(=O)O)nc3)[nH]c2c1 [2-[[5-(6-methyl-1H-benzimidazol-2-yl)-2-pyridinyl]thio]acetic acid]	5.01	–
CC1(C)Cc2nc3sc4c(=O)[nH]cnc4c3cc2CS1 [8,8-dimethyl-7,10-dihydro-8H-thiopyrano[3'',4'':5',6']pyrido[3',2':4,5]thieno[3,2-d]pyrimidin-4(3H)-one]	3.97	–
CC(C)C(OC(=O)CN1C(=O)COc2ccccc21)C(=O)NC1CCCC1 (configuration not stated) [(3-Oxo-2,3-dihydro-benzo[1,4]oxazin-4-yl)-acetic acid 1-cyclopentylcarbamoyl-2-methyl-propyl ester]	< 2.00	–
c1ccc2c(c1)nnn2Cc1nnc2sc(-c3ccc4c(c3)OCCO4)nn12 [1-{[6-(2,3-dihydro-1,4-benzodioxin-6-yl)[1,2,4]triazolo[3,4-b][1,3,4]thiadiazol-3-yl]methyl}-1H-1,2,3-benzotriazole]	4.08	–
Cc1ccccc1Cn1cc(NC(=O)c2cc3nc(-c4ccco4)cc(C(F)(F)F)n3n2)cn1 [5-(2-furanyl)-N-[1-[(2-methylphenyl)methyl]-4-pyrazolyl]-7-(trifluoromethyl)-2-pyrazolo[1,5-a]pyrimidinecarboxamide]	4.50	–
COCCn1nnnc1CN(Cc1cccnc1)Cc1cc2cc(OC)ccc2[nH]c1=O [6-methoxy-3-[[[1-(2-methoxyethyl)-5-tetrazolyl]methyl-(3-pyridinylmethyl)amino]methyl]-1H-quinolin-2-one]	< 2.00	–
CCc1ccc(S(=O)(=O)NCc2cn3ccsc3n2)s1 [5-ethyl-N-(6-imidazo[2,1-b]thiazolylmethyl)-2-thiophenesulfonamide]	< 2.00	–
C=CCNc1nc(N2CCCC2)nc2ccccc12 [MLS000066749]	4.18	–
O=C1CC(c2cccnc2)c2cc3c(cc2N1)OCO3 (configuration not stated) [8-(3-pyridinyl)-7,8-dihydro-5H-[1,3]dioxolo[4,5-g]quinolin-6-one]	< 2.00	–
CCn1cc(C(=O)NCc2ccco2)c(=O)c2cc(F)c(N3CCN(C(=O)c4ccco4)CC3)cc21 [1-ethyl-6-fluoranyl-7-[4-(furan-2-ylcarbonyl)piperazin-1-yl]-N-(furan-2-ylmethyl)-4-oxidanylidene-quinoline-3-carboxamide]	4.78	–
CC1(C)CC(=O)c2cc(OCC(=O)N3CCN(c4ccccc4F)CC3)ccc2O1 [6-[2-[4-(2-fluorophenyl)-1-piperazinyl]-2-oxoethoxy]-2,2-dimethyl-3,4-dihydro-2H-1-benzopyran-4-one]	4.43	–
Cn1cc(O)nc1NC(=O)C12CC3CC(CC(C3)C1)C2	< 2.00	–
COc1cc(-c2nc3cnccc3n2C)cc(OC)c1OC [1-Methyl-2-(3,4,5-trimethoxy-phenyl)-1H-imidazo[4,5-c]pyridine]	< 2.00	–
COc1cccc(Cn2c(=S)[nH]c3ccc(N4CCOCC4)cc3c2=O)c1	4.44	–
COCCn1c(C)cc(C(=O)COc2nc3ccccc3nc2C)c1C [1-[1-(2-methoxyethyl)-2,5-dimethyl-3-pyrrolyl]-2-[(3-methyl-2-quinoxalinyl)oxy]ethanone]	2.52	–
COc1cc2c(cc1OC)C(CC(=O)N1CCOCC1)=NC(C)(C)C2 [(2Z)-2-(6,7-dimethoxy-3,3-dimethyl-2,4-dihydroisoquinolin-1-ylidene)-1-(4-morpholinyl)ethanone;hydrochloride]	4.41	–
Nc1nc(N)c2sc3nc4c(cc3c2n1)CCC4 [2,3-Dihydro-1H-9-thia-5,7,10-triaza-cyclopenta[b]fluorene-6,8-diamine]	< 2.00	–
COC(=O)Cc1sc(=O)[nH]c1Nc1ccccc1 [MLS000111966]	< 2.00	–
CCOC(=O)COc1ccc2nsnc2c1Cl [2-(4-chloropiazthiol-5-yl)oxyacetic acid ethyl ester]	< 2.00	–
O=c1c2ccccc2sn1-c1cc(S(=O)(=O)N2CCOCC2)ccc1N1CCOCC1 [2-(2-morpholin-4-yl-5-morpholin-4-ylsulfonyl-phenyl)-1,2-benzothiazol-3-one]	4.81	–
CCCCC(=O)Nc1ccc(C(N)=O)cc1 [4-(1-oxopentylamino)benzamide]	< 2.00	–
COc1ccc(C(=O)NCc2cn3c(C)csc3n2)cc1OC [3,4-dimethoxy-N-[(3-methyl-6-imidazo[2,1-b]thiazolyl)methyl]benzamide]	< 2.00	–
CC(C)/N=c1/cc2n(-c3ccc(Cl)cc3)c3ccccc3nc-2cc1Nc1ccc(Cl)cc1	5.54	–
COc1ccc(N2C(C)=CS/C2=C(/C#N)c2nnc(N3CCOCC3)n2-c2ccccc2)cc1 [(2Z)-2-[3-(4-methoxyphenyl)-4-methyl-1,3-thiazol-2-ylidene]-2-(5-morpholin-4-yl-4-phenyl-1,2,4-triazol-3-yl)acetonitrile]	< 2.00	–
CC1(C)C(C=C(Cl)Cl)C1C(=O)N1CCN(c2ccccc2)CC1 (configuration not stated) [1-{[3-(2,2-dichlorovinyl)-2,2-dimethylcyclopropyl]carbonyl}-4-phenylpiperazine]	< 2.00	–
CCc1nnc(NC(=O)CSc2nnc(COc3ccccc3)n2Cc2ccccc2)s1 [2-(4-Benzyl-5-phenoxymethyl-4H-[1,2,4]triazol-3-ylsulfanyl)-N-(5-ethyl-[1,3,4]thiadiazol-2-yl)-acetamide]	< 2.00	–
